Earlier results as cited in paper PMC7982506 (Acta Pharmaceutica Sinica. B, 2020).
Each block holds one compound with its values, some of them ahead of it.

Experiments:
[1] = molecular target: T1, SHP2-PTP (Homo sapiens, UniProt Q06124); conditions: read-out: IC50 reported previously
T1 sequence (Q06124 237-535): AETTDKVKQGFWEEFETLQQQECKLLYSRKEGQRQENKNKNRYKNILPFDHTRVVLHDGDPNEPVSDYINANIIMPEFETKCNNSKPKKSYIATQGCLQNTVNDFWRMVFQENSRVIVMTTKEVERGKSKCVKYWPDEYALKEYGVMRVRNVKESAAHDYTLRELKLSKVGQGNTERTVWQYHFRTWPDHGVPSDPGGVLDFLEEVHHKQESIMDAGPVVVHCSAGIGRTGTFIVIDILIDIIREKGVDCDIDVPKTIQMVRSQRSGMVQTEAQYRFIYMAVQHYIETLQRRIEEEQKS

[2] = test system: p-ERK; conditions: versus SHP099
[3] = test system: cell growth; conditions: versus SHP099
[4] = molecular target: T2, SHP2-WT (Homo sapiens, UniProt Q06124); conditions: read-out: EC50 of p-IRS1 peptide for SHP2-WT, previously reported
T2 sequence (Q06124 1-535): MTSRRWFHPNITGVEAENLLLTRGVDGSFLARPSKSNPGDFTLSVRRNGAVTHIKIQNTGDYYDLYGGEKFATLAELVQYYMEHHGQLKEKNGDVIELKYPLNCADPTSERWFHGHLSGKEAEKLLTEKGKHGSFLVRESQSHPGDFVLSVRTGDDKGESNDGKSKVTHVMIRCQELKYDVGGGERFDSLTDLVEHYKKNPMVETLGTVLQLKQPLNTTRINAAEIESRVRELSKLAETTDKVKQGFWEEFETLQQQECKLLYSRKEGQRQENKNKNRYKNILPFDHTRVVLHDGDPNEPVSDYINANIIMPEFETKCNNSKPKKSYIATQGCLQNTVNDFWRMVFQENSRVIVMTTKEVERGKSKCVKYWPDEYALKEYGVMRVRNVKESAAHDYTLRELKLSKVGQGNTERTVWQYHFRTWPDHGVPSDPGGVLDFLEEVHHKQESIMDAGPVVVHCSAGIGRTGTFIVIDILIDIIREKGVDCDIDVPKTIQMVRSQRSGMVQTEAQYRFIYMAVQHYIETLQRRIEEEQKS

IC50 [1]: 10 µM
Compound: [Na+].[Na+].[Na+].[O]=[V]([O-])([O-])[O-] [Na3VO4]

Compound: Cc1ncsc1-c1ccc([C@H](C)NC(=O)[C@@H]2C[C@@H](O)CN2C(=O)[C@@H](NC(=O)CCCCCCCCN2CCN(C(=O)CCC(=O)Nc3cccc(Sc4ncc(N5CCC(C)(N)CC5)nc4N)c3Cl)CC2)C(C)(C)C)cc1 [SHP2-D26]
fold more potent than SHP099 in inhibition of p-ERK [2]: 30 fold | fold more potent than SHP099 in inhibition of cell growth [3]: 30 fold

EC50 [4]: 0.25 µM
Compound: H2N-LN(pY)IDLDLV(dPEG8)LST(pY)ASINFQK-amide [p-IRS1 peptide]
